Data set [1] deals with T1, 5-HT7R (Homo sapiens, UniProt P34969).
T1 construct: expressed in transfected cells
Kind of data set: [3H]-5-CT radioligand binding assay, HEK293 cells. Particulars: mean of three experiments. On the procedure: All experiments were carried out according to the previously published procedures.[41]−[43] HEK293 cells stably expressing human 5-HT1A, 5-HT6, 5-HT7b, and D2L receptors (prepared with the use of Lipofectamine 2000) or CHO-K1 cells with plasmid containing the sequence coding for the human serotonin 5-HT2A receptor (PerkinElmer) were maintained at 37 °C in a humidified atmosphere containing 5% CO2 and grown in Dulbecco’s modified Eagle’s medium containing 10% dialyzed fetal bovine serum and 500 μg/mL G418 sulfate. For membrane preparation, cells were cultured in 150 cm^2 flasks, grown to 90% confluence, washed twice with prewarmed to 37 °C phosphate buffered saline (PBS), and centrifuged (200g) in PBS containing 0.1 mM EDTA and 1 mM dithiothreitol. Prior to membrane preparation, pellets were stored at −80 °C. Cell pellets were thawed and homogenized in 10 volumes of assay buffer using an Ultra Turrax tissue homogenizer and centrifuged twice at 35 000g for 15 min at 4 °C, with incubation for 15 min at 37 °C between the centrifugations. The composition of the assay buffers was experimentally selected to achieve the maximum signal window (more details in Supporting Information). All assays were carried out in a total volume of 200 μL in 96-well plates for 1 h at 37 °C except 5-HT1AR and 5-HT2AR which were incubated at room temperature and 27 °C, respectively. The process of equilibration was terminated by rapid filtration through Unifilter plates with a 96-well cell harvester, and radioactivity retained on the filters was quantified on a Microbeta plate reader (PerkinElmer, USA). For displacement studies the assay samples contained the following as radioligands (PerkinElmer, USA): 2.5 nM [^3H]-8-OH-DPAT (135.2 Ci/mmol) for 5-HT1AR; 1 nM [^3H]-ketanserin (53.4 Ci/mmol) for 5-HT2AR; 2 nM [^3H]-LSD (83.6 Ci/mmol) for 5-HT6R; 0.8 nM [^3H]-5-CT (39.2 Ci/mmol) for 5-HT7R or 2.5 nM [^3H]-raclopride (76.0 Ci/mmol) for D2LR. Nonspecific binding was defined in the presence of 10 μM 5-HT in 5-HT1AR and 5-HT7R binding experiments, whereas 20 μM mianserin, 10 μM methiothepine, and 10 μM haloperidol were used in 5-HT2AR, 5-HT6R, and D2LR assays, respectively. Each compound was tested in triplicate at seven concentrations (10^–10–10^–4 M). The inhibition constants (Ki) were calculated from the Cheng–Prusoff equation.[44]

For data set [2], the target named is T2, serotonin 5-HT3 receptor (Homo sapiens, UniProt P46098).
T2 construct: Eurofins Cerep (contract assay)
T2 sequence (P46098 24-478): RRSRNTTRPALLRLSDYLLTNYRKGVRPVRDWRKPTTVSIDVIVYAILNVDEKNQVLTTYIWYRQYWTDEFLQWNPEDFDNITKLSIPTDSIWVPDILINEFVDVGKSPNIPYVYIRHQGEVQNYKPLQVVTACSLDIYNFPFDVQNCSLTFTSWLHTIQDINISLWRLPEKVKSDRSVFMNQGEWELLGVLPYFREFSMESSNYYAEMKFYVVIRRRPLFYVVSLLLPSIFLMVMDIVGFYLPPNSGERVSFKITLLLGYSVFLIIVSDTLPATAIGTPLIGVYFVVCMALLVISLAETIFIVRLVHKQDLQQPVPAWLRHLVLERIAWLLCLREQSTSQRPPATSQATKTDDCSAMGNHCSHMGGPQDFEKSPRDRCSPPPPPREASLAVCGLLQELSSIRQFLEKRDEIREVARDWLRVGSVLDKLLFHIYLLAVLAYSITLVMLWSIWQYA
Description: Eurofins Cerep off-target binding, % inhibition at 1 μM. How it is done: (§1) Additionally, the affinity of compound 27 at the adrenergic α1A, muscarinic M1, histaminergic H1, dopaminergic D3, serotoninergic 5-HT2C, 5-HT3 receptors, serotonin transporter (SERT), and the human ether-a-go-go-related gene (hERG) channel were evaluated in Eurofins Cerep.

Data set [3] has as its target T3, serotonin transporter (SERT) (Homo sapiens, UniProt P31645).
T3 construct: Eurofins Cerep (contract assay)
The description is as above. On the procedure: as §1

In data set [4] the target is T4, H1 histaminic receptor (Homo sapiens, UniProt P35367).
T4 construct: Eurofins Cerep (contract assay)
T4 sequence (P35367 whole entry): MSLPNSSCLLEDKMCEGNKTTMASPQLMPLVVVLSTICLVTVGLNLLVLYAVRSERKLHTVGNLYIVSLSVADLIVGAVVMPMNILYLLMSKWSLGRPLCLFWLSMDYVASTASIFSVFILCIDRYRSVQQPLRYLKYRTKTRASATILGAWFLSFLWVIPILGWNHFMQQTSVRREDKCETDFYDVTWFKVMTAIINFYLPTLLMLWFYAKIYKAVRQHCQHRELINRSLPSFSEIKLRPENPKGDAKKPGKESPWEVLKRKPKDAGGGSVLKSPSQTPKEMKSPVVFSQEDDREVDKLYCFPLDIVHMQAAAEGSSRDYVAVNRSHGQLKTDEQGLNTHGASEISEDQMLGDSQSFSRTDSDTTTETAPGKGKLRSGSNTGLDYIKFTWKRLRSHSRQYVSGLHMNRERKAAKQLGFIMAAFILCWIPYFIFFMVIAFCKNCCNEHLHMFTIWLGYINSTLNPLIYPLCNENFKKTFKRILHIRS
Described as above. On the procedure: as §1

In data set [5] the target is T5, hERG channel (Homo sapiens, UniProt Q12809).
T5 construct: Eurofins Cerep (contract assay)
T5 sequence (Q12809 whole entry): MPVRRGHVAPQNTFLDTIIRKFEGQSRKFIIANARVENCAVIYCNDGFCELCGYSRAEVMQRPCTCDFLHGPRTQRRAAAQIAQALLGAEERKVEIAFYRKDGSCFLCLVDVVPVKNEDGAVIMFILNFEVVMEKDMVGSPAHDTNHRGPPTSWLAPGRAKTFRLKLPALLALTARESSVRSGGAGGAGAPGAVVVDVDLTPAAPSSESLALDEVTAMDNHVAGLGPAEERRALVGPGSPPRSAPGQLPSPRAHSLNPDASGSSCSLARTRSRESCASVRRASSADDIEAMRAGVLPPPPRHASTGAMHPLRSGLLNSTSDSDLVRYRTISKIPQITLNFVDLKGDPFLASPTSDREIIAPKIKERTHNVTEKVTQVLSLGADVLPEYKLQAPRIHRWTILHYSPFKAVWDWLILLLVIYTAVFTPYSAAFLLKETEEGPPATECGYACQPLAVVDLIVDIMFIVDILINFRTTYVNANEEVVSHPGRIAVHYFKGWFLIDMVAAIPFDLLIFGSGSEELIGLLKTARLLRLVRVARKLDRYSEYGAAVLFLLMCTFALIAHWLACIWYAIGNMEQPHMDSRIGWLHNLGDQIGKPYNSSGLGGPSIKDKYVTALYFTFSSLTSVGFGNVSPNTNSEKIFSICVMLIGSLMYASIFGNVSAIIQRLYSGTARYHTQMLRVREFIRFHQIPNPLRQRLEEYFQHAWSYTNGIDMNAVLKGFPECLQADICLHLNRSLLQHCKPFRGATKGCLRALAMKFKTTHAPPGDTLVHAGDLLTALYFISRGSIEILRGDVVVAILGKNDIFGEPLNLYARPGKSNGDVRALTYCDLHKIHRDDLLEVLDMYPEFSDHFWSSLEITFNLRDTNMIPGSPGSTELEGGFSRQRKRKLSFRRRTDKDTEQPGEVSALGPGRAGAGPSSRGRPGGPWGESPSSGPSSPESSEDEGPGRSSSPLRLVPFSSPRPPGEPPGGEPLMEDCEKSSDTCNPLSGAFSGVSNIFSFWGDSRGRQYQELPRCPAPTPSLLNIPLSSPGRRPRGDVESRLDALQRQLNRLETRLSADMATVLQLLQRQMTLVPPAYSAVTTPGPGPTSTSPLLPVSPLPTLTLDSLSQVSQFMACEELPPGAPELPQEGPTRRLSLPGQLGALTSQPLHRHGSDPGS
The data set is described as above. How it is done: as §1

Data set [6] addresses T6, D3 dopamine receptor (Homo sapiens, UniProt P35462).
T6 construct: Eurofins Cerep (contract assay)
Described as above. On the procedure:
as §1

For data set [7], the target named is T7, M1 muscarinic receptor (Homo sapiens, UniProt P11229).
T7 construct: Eurofins Cerep (contract assay)
T7 sequence (P11229 1-460): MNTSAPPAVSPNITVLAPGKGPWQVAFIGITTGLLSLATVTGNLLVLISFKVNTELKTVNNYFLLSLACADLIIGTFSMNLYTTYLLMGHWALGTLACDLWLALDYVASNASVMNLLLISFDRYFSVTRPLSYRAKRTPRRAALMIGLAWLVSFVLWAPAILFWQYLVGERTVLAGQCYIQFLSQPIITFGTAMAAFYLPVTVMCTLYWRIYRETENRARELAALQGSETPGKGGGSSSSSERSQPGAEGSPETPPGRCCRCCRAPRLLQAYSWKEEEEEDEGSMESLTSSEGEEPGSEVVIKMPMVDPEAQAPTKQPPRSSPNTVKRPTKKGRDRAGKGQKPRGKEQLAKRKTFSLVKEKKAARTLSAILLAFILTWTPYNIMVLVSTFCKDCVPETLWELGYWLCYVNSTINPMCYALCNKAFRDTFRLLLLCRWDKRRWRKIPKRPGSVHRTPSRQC
The data set is described as above. How it is done: as §1

The nature of data set [8]: Metabolic stability in rat liver microsomes. The class given is in vitro ADME. Particulars: male, pH 7.4, 10 μM compound, read-out: intrinsic clearance. On the procedure: Metabolic stability of compounds 27 and 28 was analyzed using incubation systems composed of tested compound (10 μM), rat liver microsomes (RLMs, microsomes from rat male liver, pooled; 0.4 mg/mL; Sigma-Aldrich), NADPH-regenerating system (NADP+, glucose-6-phosphate, and glucose-6-phosphate dehydrogenase in 100 mM potassium buffer, pH 7.4; all from Sigma-Aldrich) and potassium buffer, pH 7.4. […] First, all samples containing incubation mixture (without NADPH-regenerating system) were preincubated in thermoblock at 37 °C for 10 min. Then reaction was initiated by the addition of NADPH-regenerating system. In control samples NADPH-regenerating system was replaced with potassium buffer. Probes were incubated for 30 and 60 min at 37 °C. After addition of internal standard (pentoxifylline, 10 μM) biotransformation process was stopped by addition of perchloric acid. Next, samples were centrifuged and supernatants were analyzed using UPLC/MS (Waters Corporation, Milford, MA). All experiments were run in duplicates. Half-life time was evaluated using nonlinear regression model using GraphPad Prism software, and intrinsic clearance was calculated from the equation Clint = (volume of incubation [μL]/protein in the incubation [mg])0.693/t1/2.[46]
(Microsomes from liver hold many membrane-bound enzymes, among them those of drug oxidation.)

pKi: −log10 of the molar value.

One may read the pKi as −log10 of the Ki, conventionally taken in molar units. A higher pKi goes with a small Ki. By inhibition is commonly meant how much of the control response was suppressed. Low readings indicate little suppression, high ones strong suppression.

T1 sequence (P34969 1-432): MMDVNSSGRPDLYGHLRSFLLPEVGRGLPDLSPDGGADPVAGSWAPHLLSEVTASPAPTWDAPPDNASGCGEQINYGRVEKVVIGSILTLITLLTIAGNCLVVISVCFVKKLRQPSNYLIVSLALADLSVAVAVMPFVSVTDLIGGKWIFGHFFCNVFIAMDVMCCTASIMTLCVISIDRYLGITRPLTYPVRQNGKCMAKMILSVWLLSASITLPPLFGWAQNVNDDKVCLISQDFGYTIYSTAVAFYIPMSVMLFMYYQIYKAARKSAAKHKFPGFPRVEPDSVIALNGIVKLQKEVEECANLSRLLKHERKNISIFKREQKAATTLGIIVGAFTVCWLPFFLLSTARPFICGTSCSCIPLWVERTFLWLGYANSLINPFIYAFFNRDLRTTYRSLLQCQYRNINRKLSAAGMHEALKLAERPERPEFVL
T3 sequence (P31645 whole entry, species assumed): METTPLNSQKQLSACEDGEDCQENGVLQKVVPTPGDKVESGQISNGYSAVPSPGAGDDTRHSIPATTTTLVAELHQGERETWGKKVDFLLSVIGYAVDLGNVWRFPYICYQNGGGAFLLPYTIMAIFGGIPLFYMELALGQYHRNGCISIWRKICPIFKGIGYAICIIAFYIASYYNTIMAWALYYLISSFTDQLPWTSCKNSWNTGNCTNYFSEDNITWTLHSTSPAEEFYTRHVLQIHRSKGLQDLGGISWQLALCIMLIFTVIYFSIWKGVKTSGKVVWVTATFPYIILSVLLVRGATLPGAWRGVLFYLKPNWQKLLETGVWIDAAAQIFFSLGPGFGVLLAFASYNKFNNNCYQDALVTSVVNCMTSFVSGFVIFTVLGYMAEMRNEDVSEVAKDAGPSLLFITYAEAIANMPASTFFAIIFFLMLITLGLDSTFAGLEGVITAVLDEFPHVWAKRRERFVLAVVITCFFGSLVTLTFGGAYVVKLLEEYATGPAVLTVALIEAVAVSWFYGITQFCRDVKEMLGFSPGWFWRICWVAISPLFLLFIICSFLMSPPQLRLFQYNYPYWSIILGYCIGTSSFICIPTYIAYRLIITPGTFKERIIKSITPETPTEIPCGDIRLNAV
T6 sequence (P35462 whole entry): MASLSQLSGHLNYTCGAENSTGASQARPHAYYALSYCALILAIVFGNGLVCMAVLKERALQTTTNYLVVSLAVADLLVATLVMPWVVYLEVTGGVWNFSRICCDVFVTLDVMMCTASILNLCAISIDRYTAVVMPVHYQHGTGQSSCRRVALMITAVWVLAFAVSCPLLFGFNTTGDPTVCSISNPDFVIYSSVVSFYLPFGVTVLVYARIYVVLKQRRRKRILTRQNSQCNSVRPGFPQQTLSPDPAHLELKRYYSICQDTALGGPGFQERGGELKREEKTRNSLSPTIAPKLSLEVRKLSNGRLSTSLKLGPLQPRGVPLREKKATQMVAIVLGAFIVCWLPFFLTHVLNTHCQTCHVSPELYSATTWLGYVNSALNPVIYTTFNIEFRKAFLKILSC

In data set [1], `O=C(N[C@@H]1CCNC1)c1ccn(S(=O)(=O)c2cccc(Cl)c2)c1-c1ccc(F)cc1` [Compound 27, (R)-2-(4-Fluorophenyl)-1-[(3-chlorophenyl)sulfonyl]-N-(pyrrolidin-3-yl)-1H-pyrrole-3-carboxamide] had a pKi of 4.38. The inhibition at 1 µM in data set [2] came out at 2%; in data set [3], 10%; in data set [4], 9%; in data set [5] it was 1%; in data set [6] it was 17%; in data set [7], 0%. For the same compound, the microsomal CLint at 10 μM in data set [8] turned out to be 0.82 µL/min/mg.

Compound `O=C(N[C@H]1CCNC1)c1ccn(S(=O)(=O)c2cccc(Cl)c2)c1-c1ccc(F)cc1` [Compound 28, (S)-2-(4-Fluorophenyl)-1-[(3-chlorophenyl)sulfonyl]-N-(pyrrolidin-3-yl)-1H-pyrrole-3-carboxamide] showed a pKi in data set [1] of 5.45. In data set [8], the microsomal CLint at 10 μM came to 1.03 µL/min/mg.

Source of the values: PMC8041276 (ACS Chemical Neuroscience, 2021).
